{"source": "patent US8933224B2", "about": "“Triazine derivatives” (Pfizer Inc., priority 2013, dated 2015)", "key": {"rat PDE10 enzyme": {"target": "rat PDE10 enzyme (Rattus norvegicus (Rat), UniProt Q9QYJ6)", "sequence (Q9QYJ6 24-794)": "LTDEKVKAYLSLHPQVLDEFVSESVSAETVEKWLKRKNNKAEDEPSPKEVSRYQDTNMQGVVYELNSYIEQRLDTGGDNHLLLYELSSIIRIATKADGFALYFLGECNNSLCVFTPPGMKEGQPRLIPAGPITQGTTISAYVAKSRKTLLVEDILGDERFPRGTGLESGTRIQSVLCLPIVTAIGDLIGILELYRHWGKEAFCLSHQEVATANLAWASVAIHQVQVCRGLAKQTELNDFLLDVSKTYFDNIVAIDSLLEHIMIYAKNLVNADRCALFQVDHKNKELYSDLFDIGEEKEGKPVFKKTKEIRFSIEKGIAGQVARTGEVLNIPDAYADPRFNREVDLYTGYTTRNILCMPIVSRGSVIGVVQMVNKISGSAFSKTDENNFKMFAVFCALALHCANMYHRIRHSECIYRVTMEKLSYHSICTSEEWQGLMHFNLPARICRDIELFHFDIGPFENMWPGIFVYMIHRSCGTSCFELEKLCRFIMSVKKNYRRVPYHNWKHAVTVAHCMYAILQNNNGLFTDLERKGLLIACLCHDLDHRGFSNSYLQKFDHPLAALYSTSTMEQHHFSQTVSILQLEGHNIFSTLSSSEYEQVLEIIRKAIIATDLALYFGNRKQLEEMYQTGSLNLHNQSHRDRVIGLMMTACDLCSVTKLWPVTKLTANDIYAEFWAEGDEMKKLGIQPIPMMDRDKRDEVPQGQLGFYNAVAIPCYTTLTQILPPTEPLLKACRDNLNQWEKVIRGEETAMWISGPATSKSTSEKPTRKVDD", "assay": "PDE10 scintillation proximity assay (SPA), inhibition of rat PDE10 enzyme activity", "format": "biochemical", "conditions": "geometric mean of 2-4 determinations unless otherwise indicated (b: ≧5 determinations; c: single determination)", "procedure,_shortened": "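SPA with fixed recombinant PDE10 (Sf21-expressed, Ni-NTA and Mono Q purified) converting ~20% of 20 nM ³H-cAMP in 50 mM TRIS pH 7.5, 1.3 mM MgCl2, 0.01% Brij, across an inhibitor range.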"}, "[1]": {"target": "human recombinant PDE10 enzyme (PDE10A) (Homo sapiens, UniProt Q9Y233)", "assay": "PDE10 scintillation proximity assay (SPA), inhibition of human recombinant PDE10 enzyme activity", "format": "biochemical", "conditions": "geometric mean of 2-4 determinations unless otherwise indicated (b: ≧5 determinations; c: single determination)", "procedure": "PDE10 activity was measured using a scintillation assay (SPA-based method) similar to that previously described by Seeger, T. F. et al., Brain Research 985 (2003) 113-126. The compounds' relative activity as PDE10 inhibitors was investigated by assaying a fixed amount of enzyme in the presence of the test compound and low substrate concentration (cAMP) such that an IC50 could be determined. […] The assay is performed in a 384-well format with 50 μL assay buffer (50 mM TRIS pH 7.5; 1.3 mM MgCl2; 0.01% Brij) containing enough PDE10 to convert ˜20% of 20 nM ^3H-cAMP, and a range of inhibitors. Reactions are incubated for 30 minutes at 25° C. The addition of 20 μL of 8 mg/ml yttrium silicate SPA beads (PerkinElmer) stops the reaction. The plates are sealed (TopSeal, PerkinElmer) and the beads are allowed to settle for 8 hrs, after which they are read on the Trilux Microbeta overnight. ^1Rat enzyme preparation:^2Human enzyme preparation:\nHuman PDE10A coding sequence (amino acids 21 to 797 from the sequence with accession number NP_001124162.1) was synthesized using codon optimization for insect expression and cloned into the baculovirus expression vector pFastBac (Invitrogen) engineered to include a N-terminal His6 affinity tag to aid in purification as described in Seeger, T. F. et al., Brain Research 985 (2003) 113-126. The recombinant Bacmid was isolated and used to transfect sf9 insect cells to generate a viral stock. To generate cell paste for purification, sf21 cells were infected with the virus stock and cells were harvested 72 hours after infection as described in Seeger, T. F. et al., Brain Research 985 (2003) 113-126. Insect cell paste was lysed and after centrifugation, the supernatant was chromatographed on Ni-NTA agarose (Qiagen) as described in Seeger, T. F. et al., Brain Research 985 (2003) 113-126. Ni-NTA agarose eluting fractions containing PDE10A were chromatographed on Superdex 200 (GE Healthcare Life Sciences) in 50 mM Tris HCl pH 7.5, 150 mM NaCl, 1 mM EDTA, 10% glycerol, 2 mM TCEP, 1.5 mM benzamidine, EDTA-free protease inhibitors (Roche), and 5 μM E-64."}}, "data": [{"smiles": "Cc1nc(-c2ccccc2F)c2c(N3CCc4nc(C5CC5)nc(C(F)(F)F)c4C3)ncnn12", "note": "[Example 90, 2-cyclopropyl-6-[5-(2-fluorophenyl)-7-methylimidazo[5,1-f][1,2,4]triazin-4-yl]-4-(trifluoromethyl)-5,6,7,8-tetrahydropyrido[4,3-d]pyrimidine]", "values": [{"measurement": "IC50", "setting": "rat PDE10 enzyme", "result": 3090, "unit": "pM"}, {"measurement": "IC50", "setting": "[1]", "result": 4550, "unit": "pM"}]}, {"smiles": "Cc1nc([C@@H]2CCOC2)c2c(N3CCc4cnn(CC(F)(F)F)c4C3)ncnn12", "note": "[Example 170, 7-methyl-5-[(3S)-tetrahydrofuran-3-yl]-4-[1-(2,2,2-trifluoroethyl)-1,4,5,7-tetrahydro-6H-pyrazolo[3,4-c]pyridin-6-yl]imidazo[5,1-f][1,2,4]triazine]", "values": [{"measurement": "IC50", "setting": "rat PDE10 enzyme", "result": 1940, "unit": "pM"}, {"measurement": "IC50", "setting": "[1]", "result": 2550, "unit": "pM"}]}, {"smiles": "Cc1nc(-c2ccccc2F)c2c(N3CCc4ccc(C5CC5)nc4C3)ncnn12", "note": "[Example 75, 2-cyclopropyl-7-[5-(2-fluorophenyl)-7-methylimidazo[5,1-f][1,2,4]triazin-4-yl]-5,6,7,8-tetrahydro-1,7-naphthyridine]", "values": [{"measurement": "IC50", "setting": "rat PDE10 enzyme", "result": 3560, "unit": "pM"}, {"measurement": "IC50", "setting": "[1]", "result": 6030, "unit": "pM"}]}, {"smiles": "Cc1nc(C2CC2)nc2c1CN(c1ncnn3c(C)nc(-c4ccccc4F)c13)CC2", "note": "[Example 40, 2-cyclopropyl-6-[5-(2-fluorophenyl)-7-methylimidazo[5,1-f][1,2,4]triazin-4-yl]-4-methyl-5,6,7,8-tetrahydropyrido[4,3-d]pyrimidine]", "values": [{"measurement": "IC50", "setting": "rat PDE10 enzyme", "result": 442, "unit": "pM"}, {"measurement": "IC50", "setting": "[1]", "result": 980, "unit": "pM"}]}, {"smiles": "Cc1nc(-c2ccccc2F)c2c(N3CCc4cnn(CC5CCC5)c4C3)ncnn12", "note": "[Example 175, 4-[1-(cyclobutylmethyl)-1,4,5,7-tetrahydro-6H-pyrazolo[3,4-c]pyridin-6-yl]-5-(2-fluorophenyl)-7-methylimidazo[5,1-f][1,2,4]triazine]", "values": [{"measurement": "IC50", "setting": "rat PDE10 enzyme", "result": 878, "unit": "pM"}, {"measurement": "IC50", "setting": "[1]", "result": 1940, "unit": "pM"}]}, {"smiles": "CCOc1nc(C2CC2)nc2c1CN(c1ncnn3c(C)nc([C@@H]4CCOC4)c13)CC2", "note": "[Example 148, 2-cyclopropyl-4-ethoxy-6-{7-methyl-5-[(3S)-tetrahydrofuran-3-yl]imidazo[5,1-f][1,2,4]triazin-4-yl}-5,6,7,8-tetrahydropyrido[4,3-d]pyrimidine]", "values": [{"measurement": "IC50", "setting": "rat PDE10 enzyme", "result": 125, "unit": "pM"}, {"measurement": "IC50", "setting": "[1]", "result": 166, "unit": "pM"}]}, {"smiles": "Cc1nc(-c2ccccc2F)c2c(N3CCc4cnn(C(C)C)c4C3)ncnn12", "note": "[Example 92, 5-(2-fluorophenyl)-7-methyl-4-[1-(propan-2-yl)-1,4,5,7-tetrahydro-6H-pyrazolo[3,4-c]pyridin-6-yl]imidazo[5,1-f][1,2,4]triazine]", "values": [{"measurement": "IC50", "setting": "rat PDE10 enzyme", "result": 997, "unit": "pM"}, {"measurement": "IC50", "setting": "[1]", "result": 664, "unit": "pM"}]}, {"smiles": "CCn1ncc2c1CN(c1ncnn3c(C)nc([C@@H]4CCOC4)c13)CC2", "note": "[Example 165, 4-(1-ethyl-1,4,5,7-tetrahydro-6H-pyrazolo[3,4-c]pyridin-6-yl)-7-methyl-5-[(3S)-tetrahydrofuran-3-yl]imidazo[5,1-f][1,2,4]triazine]", "values": [{"measurement": "IC50", "setting": "rat PDE10 enzyme", "result": 766, "unit": "pM"}, {"measurement": "IC50", "setting": "[1]", "result": 1020, "unit": "pM"}]}, {"smiles": "CCc1nc(C)nc2c1CN(c1ncnn3c(C)nc([C@@H]4CCOC4)c13)CC2", "note": "[Example 133, 4-ethyl-2-methyl-6-{7-methyl-5-[(3S)-tetrahydrofuran-3-yl]imidazo[5,1-f][1,2,4]triazin-4-yl}-5,6,7,8-tetrahydropyrido[4,3-d]pyrimidine]", "values": [{"measurement": "IC50", "setting": "rat PDE10 enzyme", "result": 370, "unit": "pM"}, {"measurement": "IC50", "setting": "[1]", "result": 625, "unit": "pM"}]}, {"smiles": "CCc1nn(C)c2c1CN(c1ncnn3c(C)nc([C@@H]4CCOC4)c13)CC2", "note": "[Example 18, 4-(3-ethyl-1-methyl-1,4,6,7-tetrahydro-5H-pyrazolo[4,3-c]pyridin-5-yl)-7-methyl-5-[(3S)-tetrahydrofuran-3-yl]imidazo[5,1-f][1,2,4]triazine]", "values": [{"measurement": "IC50", "setting": "rat PDE10 enzyme", "result": 147, "unit": "pM"}, {"measurement": "IC50", "setting": "[1]", "result": 486, "unit": "pM"}]}, {"smiles": "COc1ccc2c(c1OCCF)CN(c1ncnn3c(C)nc([C@@H]4CCOC4)c13)CC2", "note": "[Example 4, 8-(2-Fluoroethoxy)-7-methoxy-2-{7-methyl-5-[(3S)-tetrahydrofuran-3-yl]imidazo[5,1-f][1,2,4]triazin-4-yl}-1,2,3,4-tetrahydroisoquinoline]", "values": [{"measurement": "IC50", "setting": "rat PDE10 enzyme", "result": 205, "unit": "pM"}, {"measurement": "IC50", "setting": "[1]", "result": 38.6, "unit": "pM"}]}, {"smiles": "Cc1nc([C@@H]2CCOC2)c2c(N3CCc4ccc(C5CC5)nc4C3)ncnn12", "note": "[Example 74, 2-cyclopropyl-7-{7-methyl-5-[(3S)-tetrahydrofuran-3-yl]imidazo[5,1-f][1,2,4]triazin-4-yl}-5,6,7,8-tetrahydro-1,7-naphthyridine]", "values": [{"measurement": "IC50", "setting": "rat PDE10 enzyme", "result": 89.6, "unit": "pM"}, {"measurement": "IC50", "setting": "[1]", "result": 211, "unit": "pM"}]}, {"smiles": "CCOc1nc(C)nc2c1CN(c1ncnn3c(C)nc([C@@H]4CCOC4)c13)CC2", "note": "[Example 35, 4-ethoxy-2-methyl-6-{7-methyl-5-[(3S)-tetrahydrofuran-3-yl]imidazo[5,1-f][1,2,4]triazin-4-yl}-5,6,7,8-tetrahydropyrido[4,3-d]pyrimidine]", "values": [{"measurement": "IC50", "setting": "rat PDE10 enzyme", "result": 123, "unit": "pM"}, {"measurement": "IC50", "setting": "[1]", "result": 275, "unit": "pM"}]}, {"smiles": "Cc1nc([C@@H]2CCOC2)c2c(N3CCc4nn(C5CC5)cc4C3)ncnn12", "note": "[Example 11, 4-(2-Cyclopropyl-2,4,6,7-tetrahydro-5H-pyrazolo[4,3-c]pyridin-5-yl)-7-methyl-5-[(3S)-tetrahydrofuran-3-yl]imidazo[5,1-f][1,2,4]triazine]", "values": [{"measurement": "IC50", "setting": "rat PDE10 enzyme", "result": 174, "unit": "pM"}, {"measurement": "IC50", "setting": "[1]", "result": 265, "unit": "pM"}]}, {"smiles": "Cc1nc(-c2ccccc2F)c2c(N3Cc4c(cnn4C)C(C)C3)ncnn12", "note": "(centres unmarked) [Example 168]", "values": [{"measurement": "IC50", "setting": "rat PDE10 enzyme", "result": 6100, "unit": "pM"}, {"measurement": "IC50", "setting": "[1]", "result": 3960, "unit": "pM"}]}, {"smiles": "Cc1nc([C@H]2CCOC2)c2c(N3CCc4ncccc4C3)ncnn12", "note": "[Example 96, 6-{7-methyl-5-[(3R)-tetrahydrofuran-3-yl]imidazo[5,1-f][1,2,4]triazin-4-yl}-5,6,7,8-tetrahydro-1,6-naphthyridine]", "values": [{"measurement": "IC50", "setting": "rat PDE10 enzyme", "result": 5200, "unit": "pM"}, {"measurement": "IC50", "setting": "[1]", "result": 4800, "unit": "pM"}]}, {"smiles": "COc1ccc2c(c1)CCN(c1ncnn3c(C)nc([C@@H]4CCOC4)c13)C2", "note": "[Example 58, 6-methoxy-2-{7-methyl-5-[(3S)-tetrahydrofuran-3-yl]imidazo[5,1-f][1,2,4]triazin-4-yl}-1,2,3,4-tetrahydroisoquinoline]", "values": [{"measurement": "IC50", "setting": "rat PDE10 enzyme", "result": "< 1160", "unit": "pM"}, {"measurement": "IC50", "setting": "[1]", "result": 1120, "unit": "pM"}]}, {"smiles": "Cc1nc([C@@H]2CCOC2)c2c(N3Cc4c(cnn4C)[C@H](C)C3)ncnn12", "note": "(single isomer, unassigned) [Example 20]", "values": [{"measurement": "IC50", "setting": "rat PDE10 enzyme", "result": 1720, "unit": "pM"}, {"measurement": "IC50", "setting": "[1]", "result": 2510, "unit": "pM"}]}, {"smiles": "Cc1nc([C@@H]2CCOC2)c2c(N3CCc4cccnc4C3)ncnn12", "note": "[Example 3, 7-{7-Methyl-5-[(3S)-tetrahydrofuran-3-yl]imidazo[5,1-f][1,2,4]triazin-4-yl}-5,6,7,8-tetrahydro-1,7-naphthyridine]", "values": [{"measurement": "IC50", "setting": "rat PDE10 enzyme", "result": 607, "unit": "pM"}, {"measurement": "IC50", "setting": "[1]", "result": 785, "unit": "pM"}]}, {"smiles": "Cc1cc2c(cn1)CN(c1ncnn3c(C)nc(-c4ccccc4F)c13)CC2", "note": "[Example 164, 2-[5-(2-fluorophenyl)-7-methylimidazo[5,1-f][1,2,4]triazin-4-yl]-6-methyl-1,2,3,4-tetrahydro-2,7-naphthyridine]", "values": [{"measurement": "IC50", "setting": "rat PDE10 enzyme", "result": 3320, "unit": "pM"}, {"measurement": "IC50", "setting": "[1]", "result": 5920, "unit": "pM"}]}, {"smiles": "CNc1ccc2c(n1)CCN(c1ncnn3c(C)nc([C@@H]4CCOC4)c13)C2", "note": "[Example 152, N-methyl-6-{7-methyl-5-[(3S)-tetrahydrofuran-3-yl]imidazo[5,1-f][1,2,4]triazin-4-yl}-5,6,7,8-tetrahydro-1,6-naphthyridin-2-amine]", "values": [{"measurement": "IC50", "setting": "rat PDE10 enzyme", "result": "< 130", "unit": "pM"}, {"measurement": "IC50", "setting": "[1]", "result": 333, "unit": "pM"}]}, {"smiles": "Cc1nc([C@@H]2CCOC2)c2c(N3CCc4noc(C5CC5)c4C3)ncnn12", "note": "[Example 6, 4-(3-Cyclopropyl-6,7-dihydro[1,2]oxazolo[4,3-c]pyridin-5(4H)-yl)-7-methyl-5-[(3S)-tetrahydrofuran-3-yl]imidazo[5,1-f][1,2,4]triazine]", "values": [{"measurement": "IC50", "setting": "rat PDE10 enzyme", "result": 364, "unit": "pM"}, {"measurement": "IC50", "setting": "[1]", "result": 406, "unit": "pM"}]}]}
